Experimental data taken from patent publication US5153226A, “Acat inhibitors for treating hypocholesterolemia” (Warner-Lambert Company, priority 1990, dated 1992).

Assays:
[1] = system: cholesterol; test: in vivo screen APCC, cholesterol in rats fed PCC diet with cholic acid; design: species or system male Sprague-Dawley rats; settings: APCC rats dosed at 4 PM, PCC diet with 1% or 0.5% cholic acid overnight, blood cholesterol at 8 AM; dose not given
Text: In one in vivo screen, designated APCC, male Sprague-Dawley rats (200 to 225 g) were randomly divided into treatment groups and dosed at 4 PM with either vehicle (CMC/Tween) or suspensions of compounds in vehicle. The normal, chow diet was then replaced with the PCC diet (RR 740-02122) with either 1% or 0.5% cholic acid, as indicated. The rats consumed this diet ad libitum during the night and were sacrificed at 8 AM to obtain blood samples for cholesterol analysis using standard procedures (RR 740-02122). Statistical differences between mean cholesterol values for the same vehicle were determined using analysis of variance followed by Fisher's least significant test.

[2] = biological target: T1, acyl-CoA:cholesterol acyltransferase (ACAT) (Oryctolagus cuniculus, UniProt G1SFD9); test: in vitro ACAT inhibition, acylation of cholesterol by oleic acid in tissue preparation containing rabbit intestinal microsomes; type: biochemical; settings: concentration required to inhibit 50% expression of the enzyme
T1 construct: tissue preparation containing rabbit intestinal microsomes; from tissue; host or cells: rabbit intestinal microsomes
T1 sequence (G1SFD9 1-524): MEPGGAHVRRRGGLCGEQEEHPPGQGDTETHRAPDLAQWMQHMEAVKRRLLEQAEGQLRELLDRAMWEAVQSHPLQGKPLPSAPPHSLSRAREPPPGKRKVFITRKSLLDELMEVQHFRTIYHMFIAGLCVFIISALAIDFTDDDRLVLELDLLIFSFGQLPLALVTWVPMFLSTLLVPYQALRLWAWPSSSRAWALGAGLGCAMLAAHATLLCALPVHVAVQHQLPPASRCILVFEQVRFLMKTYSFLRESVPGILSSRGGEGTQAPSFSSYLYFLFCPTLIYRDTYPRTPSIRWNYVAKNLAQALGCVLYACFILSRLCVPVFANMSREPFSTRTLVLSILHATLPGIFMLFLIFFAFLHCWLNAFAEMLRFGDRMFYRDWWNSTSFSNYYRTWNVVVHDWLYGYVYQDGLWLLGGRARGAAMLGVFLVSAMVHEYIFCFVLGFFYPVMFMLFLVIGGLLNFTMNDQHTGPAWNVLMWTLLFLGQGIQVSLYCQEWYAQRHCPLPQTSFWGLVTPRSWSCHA
Experimental: The ability of representative compounds of the present invention to inhibit ACAT was measured using an in vitro test more fully described in Field, F. J. and Salone, R. G., Biochemica et Biophysica 712: 557-570 (1982). The test assesses the ability of a test compound to inhibit the acylation of cholesterol by oleic acid by measuring the amount of radio-labeled cholesterol oleate formed from radiolabeled oleic acid in a tissue preparation containing rabbit intestinal microsomes.
The data appear in Table 1 where they are expressed as IC50 values; i.e. the concentration of test compound required to inhibit 50% […] of the enzyme.

Compound | IC50 [2] [nM] | % Change (mg/dl) [1] [%]
CC(C)c1cccc(C(C)C)c1NC(=O)CNC(c1ccccc1)c1ccccc1 [Example 4, N-[2,6-bis(1-Methylethyl)phenyl]-2-[(diphenylmethyl)amino]acetamide] | 55 | -45
CC(C)c1cccc(C(C)C)c1NC(=O)CN(CC1(c2ccccc2)CCCC1)C(=S)Nc1ccccc1 [Example 10, N-[2,6-bis(1-Methylethyl)phenyl]-2-[[(phenylamino)thioxomethyl][(1-phenylcyclopentyl)methyl]amino]acetamide] | 100 | -30
CC(C)c1cccc(C(C)C)c1NC(=O)CN(CC1(c2ccccc2)CCCC1)C(=O)Nc1ccccc1 [Example 11, N-(2,6-bis(1-Methylethyl)phenyl]-2-[[(phenylamino)carbonyl][(1-phenylcyclopentyl)methyl]amino]-acetamide] |  | -3
Cc1ccc(S(=O)(=O)N(CC(=O)Nc2c(C(C)C)cccc2C(C)C)CC2(c3ccccc3)CCCC2)cc1 [Example 14, N-[2,6-bis(1-Methylethyl)phenyl]-2-[[(4-methylphenyl)sulfonyl][(1-phenylcyclopentyl)methyl]amino]acetamide] |  | -24

The remaining molecules from weak to strong by IC50 [2], led by results:

IC50 [2] [nM] | Compound | % Change (mg/dl) [1] [%]
1050 | CC(C)c1cccc(C(C)C)c1NC(=O)[C@H](Cc1ccc(O)cc1)NC(=O)OC(C)(C)C [Example 21, (S)-1,1-Dimethylethyl[2-[[2,6-bis-(1-methylethyl)phenyl]amino]-1-[(4-hydroxyphenyl)-methyl]-2-oxoethyl]carbamate] | 
960 | Cc1ccc(S(=O)(=O)N[C@@H](Cc2ccccc2)C(=O)Nc2c(C(C)C)cccc2C(C)C)cc1 [Example 52, (S)-N-[2,6-bis(1-Methylethyl)phenyl]-α-[[(4-methylphenyl)sulfonyl]amino]benzenepropanamide] | 
350 | CC(C)c1cccc(C(C)C)c1NC(=O)[C@H](Cc1ccccc1)NC(=O)OC(C)(C)C [Example 41, (S)-α-N-(2,6-Diisopropylphenyl)benzenepropanamide] | 
